Test results from EP0099121A2, “Pharmaceutical compositions” (Bristol-Myers Company, priority 1982, dated 1984).

Tested on: Gastric Acid Output
Assay: Gastric antisecretory activity in the Gastric Fistula Rat (Table 2 title: Two-Hour Pylorus Ligated Rat)
Format: in vivo, Long Evans rats
Conditions: Rattus norvegicus, sc; Route of Administration s.c.; numbers in parentheses are the 95% confidence limits; read-out: ED50
Method: Male Long Evans rats weighing about 240-260 grams at the time of cannula implantation are used. The design and implantation of the stainless steel cannula into the anterior wall of the fore-stomach are carried out essentially as described by Pare et al. [Laboratory Animal Science, 27, 244 (1977)]. The fistula components are designed and the operative procedure is carried out exactly as described in the above reference. Post operatively the animals are individually housed in solid bottom cages with sawdust and are allowed food and water ad libitum throughout the entire recovery period. Animals are not used for test purposes for at least 15 days after the operative procedure.
The animals are fasted but allowed water ad libitum for 20 hours before the testing procedure is to begin. Immediately prior to collection, the cannula is opened and the stomach washed gently with 30-40 mL of warm saline or distilled water to remove any residual contents. The catheter is then screwed into the cannula in place of the plugging screw and the rat is placed in a clear plastic rectangular cage measuring 40 cm long, 15 cm wide and 13 cm high. The bottom of the cage has a slit approximately 1.5 cm wide and 25 cm long running down the center to accommodate the catheter which hangs through it. In this way the rat is not restricted and can move freely about the cage during collection periods. The remainder of the assay is carried out as described by Ridley et al. [Research Comm. Chem. Path. Pharm., 17, 365 (1977)].
Gastric secretions collected during the first hour after washing the stomach are discarded as they may be contaminated. For oral evaluation, the catheter is then removed from the cannula and replaced with the plugging screw. Water (2 mL/kg) is administered orally via gastric intubation and the animal is returned to the cage for 45 minutes. After this time the plugging screw is removed and replaced with a catheter to which a small plastic vial has been attached to collect the gastric secretions. A two hour sample is collected (this represents the control secretion), the catheter removed and replaced with the plugging screw. The test drug is now administered orally in a volume of 2 mL/kg via gastric intubation. Forty-five minutes later the plugging screw is again removed, replaced with the catheter attached to a small plastic vial and another 2 hour sample is collected. The secretions in the second sample are compared to those of the control sample in order to determine the effects of the test drug.
When test compounds are to be evaluated parenterally, the animal is injected ip or sc with the test compound vehicle in a volume of 2 mL/kg immediately after discarding the initial 60 minute collection. A two hour sample is collected (control secretion) and the animals are injected either ip or sc with the test compound in a volume of 2 mL/kg. An additional two hour sample is collected and its secretions are compared to those of the control period to determing drug effects.
The samples are centrifuged in a graduated tube for volume determination. Titratable acidity is measured by titrating a one mL sample to pH 7.0 with 0.02N NaOH, using an Autoburet and an electrometric pH meter (Radiometer). Titratable acid output is calculated in microequivalents by multiplying the volume in milliliters by the acid concentration in milliequivalents per liter.
Results are expressed as percent inhibition relative to control readings. Dose response curves are constructed and ED values are calculated by regression analyses. At least three rats are used at each dosage level and a minimum of three dosage levels are utilized for determination of a dose response curve.

Structure (SMILES) | ED50 [µmol/kg]
CN(C)Cc1ccc(CSCCNC2=NS(=O)(=O)N=C2N2CCOCC2)o1 [Example 99, 3-{2-[(5-Dimethylaminomethyl-2-furyl)methylthio]ethylamino}-4-morpholino-1,2,5-thiadiazole 1,1-dioxide] | 32
COCCNC1=NS(=O)(=O)N=C1NCCSCc1ccc(CN(C)C)o1 [Example 100, 3-{2-[(5-Dimethylaminomethyl-2-furyl)methylthio]ethylamino}-4-(2-methoxyethylamino)-1,2,5-thiadiazole 1,1-dioxide] | 1.6
CN(C)Cc1ccc(CSCCNC2=NS(=O)(=O)N=C2N2CCCC2)o1 [Example 101, 3-{2-[(5-Dimethylaminomethyl-2-furyl)methylthio]ethylamino}-4-pyrrolidino-1,2,5-thiadiazole 1,1-dioxide] | 68
CCCCNC1=NS(=O)(=O)N=C1NCCSCc1ccc(CN(C)C)o1 [Example 103, 3-Butylamino-4-(2-[(5-dimethylaminomethyl-2-furyl)methylthio]-ethylamino}-1,2,5-thiadiazole 1,1-dioxide] | 0.54
CN(C)Cc1ccc(CSCCNC2=NS(=O)(=O)N=C2NCc2ccccn2)o1 [Example 104, 3-{2-[(5-Dimethylaminomethyl-2-furyl)methylthio]ethylamino}-4-[(2-pyridyl)methylamino]-1,2,5-thiadiazole 1,1-dioxide] | 0.61
CN(C)Cc1ccc(CSCCNC2=NS(=O)(=O)N=C2NO)o1 [Example 105, 3-{2-[(5-Dimethylaminomethyl-2-furyl)methylthio]ethy1arnino}-4-hydroxylamino-1,2,5-thiadiazole 1,1-dioxide] | 1.65
CONC1=NS(=O)(=O)N=C1NCCSCc1ccc(CN(C)C)o1 [Example 107, 3-{2-[(5-Dimethylaminomethyl-2-furyl)methylthio]ethylamino}-4-methoxyamino-1,2,5-thiadiazole 1,1-dioxide] | 23
CCCNC1=NS(=O)(=O)N=C1NCCSCc1ccc(CN(C)C)s1 [Example 108, 3-{2-[(5-Dimethylaminomethyl-2-thienyl)methylthio]ethylamino}-4-propylamino-1,2,5-thiadiazole 1,1-dioxide] | 2.2
CN(C)Cc1ccc(CSCCNc2n[s+]([O-])nc2N)s1 (stereo not shown) [Example 109, 3-Amino-4-{2-[(5-dimethylaminomethyl-2-thienyl)methylthio]-ethylamino}-1,2,5-thiadiazole 1-oxide] | 1.4
CN(C)Cc1ccc(CSCCNC2=NS(=O)(=O)N=C2NCc2cccnc2)s1 [Example 110, 3-{2-[(5-Dimethylaminomethyl-2-thienyl)methylthio]ethylamino}-4-[(3-pyridyl)methylamino]-1,2,5-thiadiazole 1,1-dioxide] | 0.05
CN(C)Cc1ccc(CSCCNC2=NS(=O)(=O)N=C2N)s1 [Example 111, 3-Amino-4-{2-[(5-dimethylaminomethyl-2-thienyl)methylthio]-ethylamino}-1,2,5-thiadiazole 1,1-dioxide] | 0.64
CN(C)Cc1ccc(CSCCNC2=NS(=O)(=O)N=C2NCc2ccccc2)s1 [Example 112, 3-Benzylamino-4-(2-[(5-dimethylaminomethyl-2-thienyl)-methylthio]ethylamino}-1,2,5-thiadiazole 1,1-dioxide] | 1.2
CNC1=NS(=O)(=O)N=C1NCCCOc1cccc(CN(C)C)c1 [Example 113, 3-[3-(3-Dimethylaminomethylphenoxy)propylamino]-4-methylamino-1,2,5-thiadiazole 1,1-dioxide] | 0.07
CNC1=NS(=O)(=O)N=C1NCCSCc1cnc(CN(C)C)s1 [Example 114, 3-{2-[(2-Dimethylaminomethylthiazol-5-yl)methylthio]-ethylamino}-4-methylamino-1,2,5-thiadiazole 1,1-dioxide] | ~15
CNc1n[s+]([O-])nc1NCCSCc1csc(NC(=N)N)n1 (stereo not shown) [Example 115, 3-{2-[(2-Guanidinothiazol-4-yl)methylthio]ethylamino}-4-methylamino-1,2,5-thiadiazole 1-oxide] | 0.57
NC(N)=Nc1nc(CSCCNc2n[s+]([O-])nc2O)cs1 (stereo not shown) [Example 116, 3-{2-[(2-Guanidinothiazol-4-yl)methylthylthio]ethylamino}-4-hydroxy-1,2,5-thiadiazole 1-oxide] | > 10

Structure (SMILES) | ED50 [µmol/kg]
CN=C(N)Nc1nc(CSCCNc2n[s+]([O-])nc2N)cs1 (stereo not shown) [Example 117, 3-Amino-4-{2-[(2-{2-methylguanidino}thiazol-4-yl)methylthio]-ethylamino}-1,2,5-thiadiazole 1-oxide] | ~0.5
CNc1nc(CSCCNc2n[s+]([O-])nc2N)cs1 (stereo not shown) [Example 119] | > 10
CN=C(NC)Nc1nc(CSCCNc2n[s+]([O-])nc2N)cs1 (stereo not shown) [Example 120, 3-Amino-4-{2-[(2-{2,3-dimethylguanidino}thiazol-4-yl)-methylthio]ethylamino}-1,2,5-thiadiazole I-oxide] | ~5
N=C(N)Nc1nc(CSCCNc2n[s+]([O-])nc2NCCSCc2csc(NC(=N)N)n2)cs1 (stereo not shown) [Example 121, 3,4-Bis-{2-[(2-guanidinothiazol-4-yl)methylthio]ethylamino}-1,2,5-thiadiazole 1-oxide] | 0.19
CNC1=NS(=O)(=O)N=C1NCCSCc1csc(N)n1 [Example 122, 3-{2-[(2-Aminothiazol-4-yl)methylthio]ethylamino}-4-methylamino-1,2,5-thiadiazole 1,1-dioxide] | ~10
CN(C)Cc1ncc(CSCCNc2n[s+]([O-])nc2N)s1 (stereo not shown) [Example 123, 3-Amino-4-{2-[(2-dimethylaminomethylthiazol-5-yl)methylthio]-ethylamino}-1,2,5-thiadiazole 1-oxide] | > 10
Nc1nc(CSCCNc2n[s+]([O-])nc2N)cs1 (stereo not shown) [Example 124, 3-Amino-4-{2-[(2-aminothiazol-4-yl)methylthio]ethylamino}-1,2,5-thiadiazole 1-oxide] | > 10
CN=C(NC)Nc1nc(CSCCNC2=NS(=O)(=O)N=C2NC)cs1 [Example 125, 3-Methylamino-4-{2-[(2-{2,3-dimethylguanidino)thiazol-4-yl)-methylthio]ethylamino}-1,2,5-thiadiazole 1,1-dioxide] | ~10
CNC1=NS(=O)(=O)N=C1NCCSCc1csc(N(C)C)n1 [Example 127, 3-{2-[(2-Dimethylaminothiazol-4-yl)methylthio]ethylamino}-4-methylamino-1,2,5-thiadiazole 1,1-dioxide] | > 10
CNC1=NS(=O)(=O)N=C1NCCSCc1csc(N=C2NCCN2)n1 [Example 128, 3-{2-[(2-{2-Imidazolidinyl}iminothiazol-4-yl)methylthio]-ethylamino}-4-methy1amino-1,2,5-thiadiazole 1,1-dioxide] | ~10
CN(C)Cc1ccc(CSCCNC2=NS(=O)(=O)N=C2NCc2ccccn2)s1 [Example 129, 3-{2-[(5-Dimethylaminomethyl-2-thienyl)methylthio]ethylamino}-4-[(2-pyridyl)methylamino]-1,2,5-thiadiazole 1,1-dioxide] | ~1
CN(C)Cc1ccc(CSCCNC2=NS(=O)(=O)N=C2NCc2ccncc2)s1 [Example 130, 3-{2-[(5-Dimethylaminomethyl-2-thienyl)methylthio]ethylamino}-4-[(4-pyridyl)methylamino]-1,2,5-thiadiazole 1,1-dioxide] | 2.3
CCNC1=NS(=O)(=O)N=C1NCCSCc1ccc(CN(C)C)s1 [Example 131, 3-{2-[(5-Dimethylaminomethyl-2-thienyl)methylthio]ethylamino}-4-ethylamino-1,2,5-thiadiazole 1,1-dioxide] | ~0.5
CNC1=NS(=O)(=O)N=C1NCCCOc1cccc(CN2CCCCC2)c1 [Example 132, 3-Methylamino-4-{3-(3-piperidinomethylphenoxy)propylamino] - 1,2,5-thiadiazole 1,1-dioxide] | 0.025
NC1=NS(=O)(=O)N=C1NCCCOc1cccc(CN2CCCCC2)c1 [Example 134, 3-Amino-4-[3-(3-piperidinomethylphenoxy)propyiamino]-1,2,5-thiadiazole 1,1-dioxide] | 0.024
